Test results published in publication PMC5736936, “Xylopine Induces Oxidative Stress and Causes G2/M Phase Arrest, Triggering Caspase-Mediated Apoptosis by p53-Independent Pathway in HCT116 Cells” (Oxidative Medicine and Cellular Longevity, 2017).

What was measured:
[1] = system: BAD KO SV40 MEF (BAD gene knockout immortalized mouse embryonic fibroblast); test: Cytotoxic activity in BAD gene knockout fibroblasts; format: cell-based; settings: BAD KO SV40 MEF cell line
From the text: MCF7 (human breast carcinoma), HCT116 (human colon carcinoma), HepG2 (human hepatocellular carcinoma), SCC-9 (human oral squamous cell carcinoma), HSC-3 (human oral squamous cell carcinoma), HL-60 (human promyelocytic leukemia), K-562 (human chronic myelogenous leukemia), B16-F10 (murine melanoma), MRC-5 (human lung fibroblast), WT SV40 MEF (wild-type immortalized mouse embryonic fibroblast), and BAD KO SV40 MEF (BAD gene knockout immortalized mouse embryonic fibroblast) cell lines were obtained from the American Type Culture Collection (ATCC, Manassas, VA, USA). Cells were cultured in complete medium with appropriate supplements as recommended by ATCC. All cell lines were tested for mycoplasma using the Mycoplasma Stain Kit (Sigma-Aldrich) to validate the use of cells free from contamination. Primary cell culture of peripheral blood mononuclear cells (PBMC) was obtained by standard Ficoll density protocol. The Research Ethics Committee of the Oswaldo Cruz Foundation (Salvador, BA, Brazil) approved the experimental protocol (number 031019/2013). Cell viability was examined using trypan blue exclusion assay for all experiments.
Cell viability was quantified using the alamarBlue assay according to Ahmed et al.. Cells were inserted in 96-well plates for all experiments (7 × 10^4 cells/mL for adherent cells or 3 × 10^5 cells/mL for suspended cells in 100 μL of medium). After 24 h, xylopine was dissolved in dimethyl sulfoxide (DMSO) and added to each well and incubated for 72 h. […] Four (for cell lines) or 24 h (for PBMCs) before the end of incubation, 20 μL of a stock solution (0.312 mg/mL) of the alamarBlue (resazurin, Sigma-Aldrich Co., Saint Louis, MO, USA) was added to each well. Absorbance at 570 nm and 600 nm was measured using the SpectraMax 190 Microplate Reader (Molecular Devices, Sunnyvale, CA, USA), and the drug effect was quantified as the percentage of control absorbance.

[2] = system: cancer multicellular spheroids formed from HCT116 cells; test: 3D multicellular spheroids culture, alamarBlue assay, 72 h; format: cell-based, human
Protocol: HCT116 cells were cultivated in three-dimensional (3D) multicellular spheroids. Briefly, 100 μL of a solution of cells (0.5 × 10^6 cells/mL) was inserted in 96-well plates with a cell-repellent surface (Greiner Bio-One, Kremsmünster, Austria) and cultured in complete medium plus 3% Matrigel (BD Biosciences, San Jose, CA, USA). Spheroids with stable structures had formed after three days. Then, the spheroids were exposed to a range of drug concentrations for 72 h, after which the cell viability was quantified by alamarBlue assay as described above.

**Q.** Which results are given for `COc1ccc2c(c1)C[C@@H]1NCCc3cc4c(c-2c31)OCO4` [XYL, xylopine]?
**A.** IC50 [1]: 6.4 µM; morphology of spheroids ([2]; 3D spheroids of HCT116, light microscopy): morphological alterations that indicate drug permeability and cytotoxicity in the 3D culture; IC50 ([2]; Homo sapiens, HCT-116, 3D spheroids of HCT116, alamarBlue, 72 h): 24.6 µM
